For data set [1], the system named is Influenza A virus. The data set can be described thus: Antiviral activity against Influenza A virus (A/Fort Monmouth/1/1947(H1N1)) infected in dog MDCK cells assessed as inhibition of virus-induced cytopathogenicity incubated for 48 hrs. The format is functional, organism-based. A general note: Damage to the host cells serves as the signal in cytopathic effect assays.

In the next data set the test system is MDCK. The data set can be described thus: Cytotoxicity against MDCK cells assessed as reduction in cell viability at 20 uM measured after 48 hrs by CCK8 assay. The format is cell-based, Canis lupus familiaris. The conditions noted are these: dog.
The nature of data set [2]: Antiviral activity against Influenza A virus (A/WUHAN/359/1995(H3N2)) infected in dog MDCK cells assessed as inhibition of virus-induced cytopathogenicity incubated for 48 hrs. It counts as functional, cell-based.
Data set [3] is described as follows: Selectivity index, ratio of TC50 for MDCK cells to IC50 for antiviral activity against Influenza A virus (A/Fort Monmouth/1/1947(H1N1)) infected in MDCK cells. The format is toxicity, cell-based. Particulars: dog, read-out: Selectivity Index.
Data set [4] is described as follows: Selectivity index, ratio of TC50 for MDCK cells to IC50 for antiviral activity against Influenza A virus (A/WUHAN/359/1995(H3N2)) infected in MDCK cells. The format is toxicity, cell-based. Particulars: dog, read-out: Selectivity Index.
A short description of data set [5]: Cytotoxicity against MDCK cells assessed as reduction in cell viability measured after 48 hrs by CCK8 assay. The format is cell-based, Canis lupus familiaris. The conditions noted are these: dog, read-out: TC50.
Data set [6] relates to Influenza A virus. The data set can be described thus: Antiviral activity against Influenza A virus (A/Fort Monmouth/1/1947(H1N1)) infected in dog MDCK cells assessed as downregulation of M2 mRNA level measured after 2 hrs by qRT-PCR. The format is functional, organism-based. Background: Real-time PCR tracks product formation cycle by cycle.
In data set [7] the test system is Influenza A virus. The data set can be described thus: Antiviral activity against Influenza A virus (A/Fort Monmouth/1/1947(H1N1)) infected in dog MDCK cells assessed as inhibition of M2 RNA level at 3 nM measured after 2 hrs by qRT-PCR relative to control. It counts as functional.
Data set [8] has as its system Influenza A virus. The data set can be described thus: Antiviral activity against Influenza A virus (A/Fort Monmouth/1/1947(H1N1)) infected in dog MDCK cells assessed as inhibition of M2 protein measured after 18 hrs by immunofluorescence microscopic analysis. The format is functional, organism-based.
Data set [9] deals with HEK293T. The data set can be described thus: Inhibition of Influenza A virus RdRP transfected in HEK293T cells co-transfected with NP/PA/PB1/PB2/pRL-SV40 incubated for 24 hrs by DualGlo-luciferase assay. The format is cell-based.
Data set [10] deals with HEK293T. The data set can be described thus: Inhibition of Influenza A virus RdRP transfected in HEK293T cells co-transfected with NP/PA/PB1/PB2/pRL-SV40 at 1 nM incubated for 24 hrs by minireplicon based dual luciferase assay relative to control. The format is cell-based. Background: In antiviral work, replicon cells carry a viral genome segment that copies itself.
Data set [11] is described as follows: Half life in human liver microsomes in presence of NADPH generating system by LC-MS/MS analysis. The format is ADME, Microsome.
The nature of data set [12]: Clearance in human liver microsomes in presence of NADPH generating system by LC-MS/MS analysis. It counts as ADME, Microsome.
A short description of data set [13]: Half life in rat liver microsomes in presence of NADPH generating system by LC-MS/MS analysis. The format is ADME, Microsome.
A short description of data set [14]: Clearance in rat liver microsomes in presence of NADPH generating system by LC-MS/MS analysis. It counts as ADME, Microsome.
The nature of data set [15]: Half life in mouse liver microsomes in presence of NADPH generating system by LC-MS/MS analysis. The format is ADME, Microsome.
Data set [16] is described as follows: Clearance in mouse liver microsomes in presence of NADPH generating system by LC-MS/MS analysis. It counts as ADME, Microsome.
The nature of data set [17]: Half life in Sprague-Dawley rat at 5 mg/kg, po measured after 24 hrs by LC-MS/MS analysis. It counts as ADME, organism-based. Particulars: in vivo.
The nature of data set [18]: Tmax in Sprague-Dawley rat at 5 mg/kg, po measured after 24 hrs by LC-MS/MS analysis. It counts as ADME, organism-based. The conditions noted are these: in vivo.
Data set [19] can be described thus: Cmax in Sprague-Dawley rat at 5 mg/kg, po measured after 24 hrs by LC-MS/MS analysis. It counts as ADME, organism-based. Also noted: dose 5 mg/kg, time 24 hrs, route po. The conditions noted are these: in vivo.
The nature of data set [20]: AUC (0 to t) in Sprague-Dawley rat at 5 mg/kg, po measured after 24 hrs by LC-MS/MS analysis. The format is ADME, organism-based. Also noted: time 24 hrs, dose 5 mg/kg, route po. The conditions noted are these: in vivo.
Data set [21] is described as follows: AUC (0 to infinity) in Sprague-Dawley rat at 5 mg/kg, po measured after 24 hrs by LC-MS/MS analysis. The format is ADME, organism-based. Also on record: time 24 hrs, dose 5 mg/kg, route po. Particulars: in vivo.
A short description of data set [22]: Oral bioavailability Sprague-Dawley rat at 5 mg/kg measured after 24 hrs by LC-MS/MS analysis. Particulars: in vivo. The format is ADME, organism-based.

Molecules are shown by their SMILES.

As a reminder, the IC50 is the point on the concentration scale where inhibition reaches its midpoint. Usually inhibition stands for the change of the read-out against control, counted positive when it falls. For orientation: half-life means how long it takes for the measured level to halve. What is called Tmax is the time from dosing to the highest level. Broadly, the Cmax is the maximum level reached in the sampled fluid or tissue. By AUC(0-t) is commonly meant exposure summed from dosing to a finite time, without extrapolation to infinity. Read a low AUC(0-t) as less exposure. What is called AUC(0-inf) is the area under the concentration-time curve extrapolated to infinity. Lower therefore signals low exposure. The bioavailability is the share of a dose that reaches the circulation, judged against a reference dose that is usually intravenous.

In the case of `COc1ccc2c(c1)C(N1[C@@H]3COCCN3C(=O)c3c(O)c(=O)ccn31)c1ccccc1C=C2` (mixture of isomers), the IC50 came out at 281 nM with Influenza A virus [1] and 128 nM in [2]. Further, the Activity result in the data set on MDCK is listed as “Non-Toxic”. In addition, the selectivity ratio in data set [3] is more than 711; in [4] it was more than 1560. Moreover, the CC50 at 48 h in data set [5] is more than 200000 nM.
`O=C1c2c(O)c(=O)ccn2N(C2c3ccccc3C=Cc3ccc(Cl)cc32)[C@@H]2COCCN12` (mixture of isomers): the 50% inhibitory concentration (IC50) with Influenza A virus [1] was 14.3 nM; in [2], 15.2 nM. For the same compound, the selectivity ratio in data set [3] was found to be 1440; in data set [4], 1330. In data set [5], the CC50 at 48 h was 20100 nM.
Turning to `Cc1ccc2c(c1)C(N1[C@@H]3COCCN3C(=O)c3c(O)c(=O)ccn31)c1ccccc1C=C2` (mixture of isomers), the IC50 with Influenza A virus [1] is 39.3 nM; in data set [2] it was 111 nM. The Activity result in the data set with MDCK is reported as “Non-Toxic”. The selectivity ratio in data set [3] came to 1330; in data set [4] it was 472. Further, the CC50 at 48 h in [5] came out at 52400 nM.
Regarding `O=C1c2c(O)c(=O)ccn2N(C2c3ccccc3C=Cc3c(Cl)cccc32)[C@@H]2COCCN12` (mixture of isomers), the half-inhibitory concentration (IC50) in the data set with Influenza A virus [1] stood at 0.59 nM; in data set [2] it was 0.53 nM. For the same compound, the selectivity ratio in [3] amounted to 14500; in data set [4] it was 16100. Moreover, the Activity entry in the data set on Influenza A virus [6] and in the data set on Influenza A virus [8] was “Dose-dependent effect” throughout. In addition, the inhibition at 0.003 µM in the data set with Influenza A virus [7] was 76.3%. Besides, the results for the inhibition result in the data set with HEK293T [9] and with HEK293T [10] were “Dose-dependent effect” and 53.5%, respectively. In addition, the CC50 at 48 h in data set [5] is 8530 nM.
In the case of `O=C1c2c(O)c(=O)ccn2N(C2c3ccccc3C=Cc3cc(F)ccc32)[C@@H]2COCCN12` (mixture of isomers), the half-inhibitory concentration (IC50) worked out at 0.51 nM with Influenza A virus [1] and 0.82 nM in data set [2]. Further, the results for the Activity result in the data set with MDCK and with Influenza A virus [6] were “Non-Toxic” and “Dose-dependent effect”, respectively. Moreover, the selectivity ratio in [3] worked out at 117000; in data set [4] it was 72600. In data set [5], the CC50 at 48 h turned out to be 59500 nM.
Turning to `O=C1c2c(O)c(=O)ccn2N(C2c3ccccc3C=Cc3ccc(Br)cc32)[C@@H]2COCCN12` (mixture of isomers), the IC50 amounted to 19.4 nM in the data set with Influenza A virus [1] and 26.7 nM in data set [2]. For the same compound, the Activity result in the data set on MDCK is “Non-Toxic”. For the same compound, the selectivity ratio in data set [3] was more than 10300; in data set [4] it was more than 7490. Further, in [5], the CC50 at 48 h was more than 200000 nM.
In the case of `O=C1c2c(O)c(=O)ccn2N(C2c3ccccc3C=Cc3c(F)cccc32)[C@@H]2COCCN12` (mixture of isomers), the IC50 was 0.39 nM in the data set with Influenza A virus [1] and 0.57 nM in data set [2]. The values for the selectivity ratio in data set [3] and in [4] were 49600 and 34000, respectively. Further, the Activity entry in the data set on Influenza A virus [6] and with Influenza A virus [8] was “Dose-dependent effect” each time. In addition, the inhibition at 0.003 µM with Influenza A virus [7] was 86%. In addition, the values for the inhibition result with HEK293T [9] and in the data set on HEK293T [10] were “Dose-dependent effect” and 48.5%, respectively. Moreover, the CC50 at 48 h in [5] was found to be 19400 nM.
For the compound `O=C1c2c(O)c(=O)ccn2N(C2c3ccccc3C=Cc3cc(Br)ccc32)[C@@H]2COCCN12` (mixture of isomers), the IC50 in the data set on Influenza A virus [1] stood at 10.6 nM; in data set [2] it was 15.1 nM. The selectivity ratio in data set [3] was 2050; in data set [4], 1440. Besides, the CC50 at 48 h in data set [5] amounted to 21700 nM.
With `O=C1c2c(O)c(=O)ccn2N(C2c3ccccc3C=Cc3cc(Cl)ccc32)[C@@H]2COCCN12` (mixture of isomers), the IC50 with Influenza A virus [1] turned out to be 7.17 nM; in [2] it was 4.69 nM. For the same compound, the selectivity ratio in data set [3] is 2670; in [4], 4090. Besides, in data set [5], the CC50 at 48 h worked out at 19200 nM.
Consider `O=C1c2c(O)c(=O)ccn2N(C2c3ccccc3C=Cc3ccccc32)[C@@H]2COCCN12`, for which the IC50 in the data set on Influenza A virus [1] is 0.42 nM; in [2], 0.38 nM. The Activity result with MDCK is “Non-Toxic”; in the data set on Influenza A virus [6] it was “Dose-dependent effect”; in the data set on Influenza A virus [8] it was “Dose-dependent effect”. Moreover, the selectivity ratio was found to be 450000 in data set [3] and 497000 in data set [4]. In addition, in the data set with Influenza A virus [7], the inhibition at 0.003 µM was 88.5%. In addition, the results for the inhibition result in the data set on HEK293T [9] and in the data set on HEK293T [10] were “Dose-dependent effect” and 50%, respectively. Further, in [5], the CC50 at 48 h was 189000 nM. Further, the half-life in data set [11] is 221 h; in data set [13], 73.8 h; in data set [15], 31.4 h; in data set [17] it was 1.7 h. Moreover, the CLH amounted to 79.04 µmol/min/g in data set [12], 14.49 microL/ml/min in data set [14] and 73.9 microL/ml/min in data set [16]. In addition, the Tmax in [18] is 0.83 h. In data set [19], this compound returned a maximum concentration (Cmax) of 88.1 ng/mL. Also, in data set [20], the exposure AUC(0-t) at 24 h worked out at 295 ng·h/mL. Besides, the AUC(0-inf) in data set [21] was 311 ng·h/mL. This compound also registered a bioavailability in [22] of 22.9%.
For `O=C1c2c(O)c(=O)ccn2N(C2c3ccccc3C=Cc3ccc(F)cc32)[C@@H]2COCCN12` (mixture of isomers), the IC50 was 2.91 nM with Influenza A virus [1] and 1.77 nM in [2]. For the same compound, the Activity entry in the data set with MDCK is “Non-Toxic”; with Influenza A virus [6] it was “Dose-dependent effect”. Further, the selectivity ratio was more than 68700 in data set [3] and more than 113000 in data set [4]. In addition, the CC50 at 48 h in data set [5] is more than 200000 nM.

The values above are taken from ChEMBL document CHEMBL5053514, “Synthesis and Anti-Influenza Virus Effects of Novel Substituted Polycyclic Pyridone Derivatives Modified from Baloxavir” (J Med Chem, 2021).
